# Paper PMC10687080, “Resurrecting ancestral antibiotics: unveiling the origins of modern lipid II targeting glycopeptides” (Nature Communications, 2023)
# How the values were obtained:
# ANC1 = biological target: T1, ANC1 (synthetic construct, UniProt Z9HSK4K2R8); test: NADH coupled pyrophosphate release assay; type: biochemical; details: 1 mM substrate, 0.5 mM ATP, 10 mM MgCl2, pH 7.4, 30 °C
# T1 construct: resurrected ancestral A-domain, N-terminal His6-SUMO, C-terminal STREP tag, co-expressed with Tcp13 in E. coli BL21(DE3); with MbtH-like protein Tcp13 (Actinoplanes teichomyceticus)
# ANC2 (ANC2int) = biological target: T2, ANC2 (ANC2int) (synthetic construct, UniProt Z9RCC4OUL6); test: NADH coupled pyrophosphate release assay; type: biochemical; details: 1 mM substrate, 0.5 mM ATP, 10 mM MgCl2, pH 7.4, 30 °C
# T2 construct: resurrected ancestral A-domain, N-terminal His6-SUMO, C-terminal STREP tag, co-expressed with Tcp13 in E. coli BL21(DE3); with MbtH-like protein Tcp13 (Actinoplanes teichomyceticus)
SMILES,NADH coupled pyrophosphate release assay (ANC1),NADH coupled pyrophosphate release assay (ANC2 (ANC2int))
N[C@@H](C(=O)O)c1ccc(O)cc1 [D-Hpg],with a fourfold preference for the L-form,–
CC(C)C[C@@H](N)C(=O)O [D-Leu],–,ANC2 and ANC3 were both selective for Leu
CC(C)C[C@H](N)C(=O)O [L-Leu],–,ANC2 and ANC3 were both selective for Leu
